The results in this text go back to patent publication US9732046B2, “Substituted 1,2,4-triazines as tubulin inhibitors” (YM Biosciences Australia Pty Ltd., priority 2003, dated 2017).

The test system of one experiment is DU145 (Prostate Cancer). The experiment can be described thus: Cellular growth inhibition assay (MTT), DU145. The experiment is classed as cell-based. To be noted: Homo sapiens, DU-145, Table 1, 40 hr incubation. In a few lines: (§1)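 Late-log-phase cells (K562 in RPMI, DU145 in DMED, PC3 in F12K; all 10% FBS, Glutamx, plus MEM non-essential amino acids for DU145 and PC3) were plated at 50000–200,000 cell/mL (1.1× final) with compounds added at 10× final. After 40 hr at 37° C, 5% CO2, MTT was added for 6 hours, then SDS/HCl lysis overnight and absorbance read at 590 nm.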

The next experiment has as its system PC3 (Prostate Cancer). The experiment can be described thus: Cellular growth inhibition assay (MTT), PC3. The settings on record: Table 1, 40 hr incubation. The experiment is classed as cell-based. In a few lines:
as §1

Experiment [1] has as its system K562 (Chronic Myeloid Leukemia). Kind of experiment: Cellular growth inhibition assay (MTT), K562. To be noted: Homo sapiens, Table 1, 40 hr incubation. Type of experiment: cell-based. In a few lines:
as §1

The target of experiment [2] is T1, TelJak2 (BaF3 TELJAK cells, TEL/Jak2 fusion) (Homo sapiens, UniProt O60674).
T1 construct: The regions encompassing the kinase domain of JAK2 (nucleotides 2994-3914); expressed in transfected cells; host or cells: BaF3 cells bearing the pTET-off plasmid, transfected with pTELJAK2 (pTRE2 vector); the other entry of the earlier key: ETV6 (P41212, Transcription factor ETV6)
T1 sequence (O60674 with tags, fused parts or gaps): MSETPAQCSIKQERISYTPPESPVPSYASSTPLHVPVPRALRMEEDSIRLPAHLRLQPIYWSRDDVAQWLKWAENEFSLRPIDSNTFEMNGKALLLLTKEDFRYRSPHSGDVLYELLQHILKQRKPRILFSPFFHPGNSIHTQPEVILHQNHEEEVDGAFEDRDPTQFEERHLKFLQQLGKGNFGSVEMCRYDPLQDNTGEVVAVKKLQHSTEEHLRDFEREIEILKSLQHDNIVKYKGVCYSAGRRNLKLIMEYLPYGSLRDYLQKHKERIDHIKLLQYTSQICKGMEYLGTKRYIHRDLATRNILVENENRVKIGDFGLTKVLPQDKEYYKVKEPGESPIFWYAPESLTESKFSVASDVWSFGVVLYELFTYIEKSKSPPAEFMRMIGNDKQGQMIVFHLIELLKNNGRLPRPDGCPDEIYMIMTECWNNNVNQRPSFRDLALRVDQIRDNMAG
The experiment can be described thus: Cellular growth inhibition assay (MTT), BaF3 TEL:JAK2 cell line. Type of experiment: cell-based. The settings on record: Table 1, 40 hr incubation.

Experiment [3] concerns the target T2, TelJak3 (BaF3 TELJAK cells, TEL/JAK3 fusion) (Homo sapiens, UniProt P52333).
T2 construct: For JAK3 Sa1 I/Not I cleaved kinase domain PCR product was ligated with BamH I/Sa1 I cleaved TELproduct; expressed in transfected cells; host or cells: BaF3 cells bearing the pTET-off plasmid, transfected with pTELJAK3 (pTRE2 vector); the other entry of the earlier key: ETV6 (P41212, Transcription factor ETV6)
The experiment can be described thus: Cellular growth inhibition assay (MTT), BaF3 TEL:JAK3 cell line. The experiment is classed as cell-based. To be noted: Table 1, 40 hr incubation.

In experiment [4] the test system is Tubulin (microtubule protein). Kind of experiment: Tubulin assay (turbidometric assay of microtubule assembly). Type of experiment: biochemical. The settings on record: Table 1; 50 μM; absorbance at 340 nm, 37° C. How it is done: Turbidometric assays of microtubule assembly were performed by incubating microtubule protein in cuvettes at 37° C. in a thermostatically controlled spectrophotometer measuring the change in absorbance at 340 nm over time. The microtubule protein was incubated with the each test compound at 0° C. and polymerisation was initiated by addition of 1 mM GTP, prior to heating to 37° C.

Bounds are passed on as bounds.

For orientation: inhibition means the share of the control response that was lost under treatment. Higher therefore signals a strong effect.

T2 sequence (P52333 with tags, fused parts or gaps): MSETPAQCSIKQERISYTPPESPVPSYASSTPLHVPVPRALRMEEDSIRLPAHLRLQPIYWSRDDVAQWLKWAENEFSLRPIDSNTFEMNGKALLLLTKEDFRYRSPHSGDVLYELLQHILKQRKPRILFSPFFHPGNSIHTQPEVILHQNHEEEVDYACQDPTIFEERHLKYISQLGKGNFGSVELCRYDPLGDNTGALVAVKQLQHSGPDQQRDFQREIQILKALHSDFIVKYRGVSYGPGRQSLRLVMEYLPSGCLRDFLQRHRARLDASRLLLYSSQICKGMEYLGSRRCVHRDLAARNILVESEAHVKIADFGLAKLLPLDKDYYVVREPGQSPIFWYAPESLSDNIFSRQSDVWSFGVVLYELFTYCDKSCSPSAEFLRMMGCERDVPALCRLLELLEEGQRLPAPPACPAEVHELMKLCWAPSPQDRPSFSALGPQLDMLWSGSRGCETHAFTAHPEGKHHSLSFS

Take `CCCC(Nc1cncc(-c2ccc(OCCN(CC)CC)c(OC)c2)n1)c1ccccc1` (stereo not drawn): the inhibition at 20 µM (with DU145 (Prostate Cancer); in the experiment with PC3 (Prostate Cancer); in experiment [1]; in experiment [2]; in experiment [3]) was above 50% in each case. In experiment [4], the “Tubulin inhibition of tubulin polymerisation” value (“Tubulin inhibition” for short) was “+ (compounds which inhibited tubulin polymerisation by greater than 50% at 50 μM)”.
With `CCC[C@H](Nc1cncc(-c2ccc(NC(=O)NCC)c(OC)c2)n1)c1ccccc1`, the inhibition at 20 µM (in the experiment with DU145 (Prostate Cancer); in the experiment with PC3 (Prostate Cancer); in experiment [1]; in experiment [2]; in experiment [3]) was above 50% each time. Moreover, in experiment [4], the “Tubulin inhibition” value is listed as “+ (compounds which inhibited tubulin polymerisation by greater than 50% at 50 μM)”.
On to `CCCC(Nc1cncc(-c2ccc(NC(=O)NCC)c(OC)c2)n1)c1cccnc1` (stereo not drawn), for which the inhibition at 20 µM (with DU145 (Prostate Cancer); in the experiment with PC3 (Prostate Cancer); in experiment [1]; in experiment [2]; in experiment [3]) was above 50% each time. Moreover, the “Tubulin inhibition” value in experiment [4] is listed as “+ (compounds which inhibited tubulin polymerisation by greater than 50% at 50 μM)”.
On to `CCCC(Nc1cncc(-c2ccc(OCCCCO)c(OC)c2)n1)c1ccccc1` (stereo not drawn), for which the inhibition at 20 µM (with DU145 (Prostate Cancer); in the experiment with PC3 (Prostate Cancer); in experiment [1]; in experiment [2]; in experiment [3]) was above 50% each time. The “Tubulin inhibition” value in experiment [4] is listed as “+ (compounds which inhibited tubulin polymerisation by greater than 50% at 50 μM)”.
For the compound `CCCC(Nc1cncc(-c2ccc(CN)cc2)n1)c1ccccc1` (stereo not drawn), the inhibition at 20 µM (with DU145 (Prostate Cancer); with PC3 (Prostate Cancer); in experiment [1]; in experiment [2]; in experiment [3]) was above 50% each time. In addition, the “Tubulin inhibition” value in experiment [4] is listed as “+ (compounds which inhibited tubulin polymerisation by greater than 50% at 50 μM)”.
With `CCCC(Nc1cncc(-c2ccc(OCCCN3CCCC3)c(OC)c2)n1)c1ccccc1` (stereo not drawn), the inhibition at 20 µM (with DU145 (Prostate Cancer); in the experiment on PC3 (Prostate Cancer); in experiment [1]; in experiment [2]; in experiment [3]) was above 50% in each case. Moreover, the “Tubulin inhibition” value in experiment [4] was “+ (compounds which inhibited tubulin polymerisation by greater than 50% at 50 μM)”.
`CCC[C@H](Nc1cncc(-c2ccc(NC(=O)NCC)c(OC)c2)n1)c1ccccn1`: the inhibition at 20 µM (in the experiment on DU145 (Prostate Cancer); in the experiment with PC3 (Prostate Cancer); in experiment [1]; in experiment [2]; in experiment [3]) was above 50% throughout. For the same compound, in experiment [4], the “Tubulin inhibition” value was “+ (compounds which inhibited tubulin polymerisation by greater than 50% at 50 μM)”.
Consider `CCCC(Nc1cncc(-c2ccc(NC(=O)NCC)c(OC)c2)n1)c1cccnc1C` (stereo not drawn), for which the inhibition at 20 µM (in the experiment on DU145 (Prostate Cancer); in the experiment with PC3 (Prostate Cancer); in experiment [1]; in experiment [2]; in experiment [3]) was above 50% each time. For the same compound, the “Tubulin inhibition” value in experiment [4] is recorded as “+ (compounds which inhibited tubulin polymerisation by greater than 50% at 50 μM)”.
Consider `CCC[C@H](Nc1cncc(-c2ccc(NC(=O)NC)c(OC)c2)n1)c1cccnc1`, for which the inhibition at 20 µM (in the experiment with DU145 (Prostate Cancer); with PC3 (Prostate Cancer); in experiment [1]; in experiment [2]; in experiment [3]) was above 50% each time. In addition, the “Tubulin inhibition” value in experiment [4] is “+ (compounds which inhibited tubulin polymerisation by greater than 50% at 50 μM)”.
On to `CCCC(Nc1nc(-c2ccc(NC(=O)NCC)c(OC)c2)cnc1C)c1ccccc1` (stereo not drawn), for which the inhibition at 20 µM (in the experiment on DU145 (Prostate Cancer); in the experiment on PC3 (Prostate Cancer); in experiment [1]; in experiment [2]; in experiment [3]) was above 50% throughout. The “Tubulin inhibition” value in experiment [4] was “+ (compounds which inhibited tubulin polymerisation by greater than 50% at 50 μM)”.
For `CCNC(=O)Nc1ccc(-c2cncc(NC(CCOC)c3ccccc3)n2)cc1OC` (stereo not drawn), the inhibition at 20 µM (with DU145 (Prostate Cancer); in the experiment on PC3 (Prostate Cancer); in experiment [1]; in experiment [2]; in experiment [3]) was above 50% each time. Also, the “Tubulin inhibition” value in experiment [4] was “+ (compounds which inhibited tubulin polymerisation by greater than 50% at 50 μM)”.
Turning to `CCC[C@H](Nc1cc(-c2ccc(NC(=O)NCC)c(OC)c2)ncn1)c1cccnc1`, the inhibition at 20 µM (with DU145 (Prostate Cancer); in the experiment on PC3 (Prostate Cancer); in experiment [1]; in experiment [2]; in experiment [3]) was above 50% each time. In experiment [4], the “Tubulin inhibition” value was “+ (compounds which inhibited tubulin polymerisation by greater than 50% at 50 μM)”.
Consider `CCNC(=O)Nc1ccc(-c2cncc(N[C@@H](COC)c3ccccc3)n2)cc1OC`, for which the inhibition at 20 µM (with DU145 (Prostate Cancer); in the experiment on PC3 (Prostate Cancer); in experiment [1]; in experiment [2]; in experiment [3]) was above 50% in each case. The “Tubulin inhibition” value in experiment [4] is “+ (compounds which inhibited tubulin polymerisation by greater than 50% at 50 μM)”.
For the compound `CCNC(=O)Nc1ccc(-c2cncc(N[C@@H](COCC)c3ccccc3)n2)cc1OC`, the inhibition at 20 µM (with DU145 (Prostate Cancer); in the experiment on PC3 (Prostate Cancer); in experiment [1]; in experiment [2]; in experiment [3]) was above 50% in each case. For the same compound, the “Tubulin inhibition” value in experiment [4] was “+ (compounds which inhibited tubulin polymerisation by greater than 50% at 50 μM)”.
Regarding `CCCC(Nc1cc(-c2ccc(O)c(OC)c2)ncn1)c1cccnc1` (stereo not drawn), the inhibition at 20 µM (in the experiment on DU145 (Prostate Cancer); with PC3 (Prostate Cancer); in experiment [1]; in experiment [2]; in experiment [3]) was above 50% each time. Besides, the “Tubulin inhibition” value in experiment [4] is recorded as “+ (compounds which inhibited tubulin polymerisation by greater than 50% at 50 μM)”.
In the case of `CCC[C@H](Nc1nc(-c2ccc(NC(=O)NCC)c(OC)c2)ncc1C)c1cccnc1`, the inhibition at 20 µM (in the experiment with DU145 (Prostate Cancer); with PC3 (Prostate Cancer); in experiment [1]; in experiment [2]; in experiment [3]) was above 50% each time. For the same compound, in experiment [4], the “Tubulin inhibition” value was “+ (compounds which inhibited tubulin polymerisation by greater than 50% at 50 μM)”.
With `CCC[C@H](Nc1nc(-c2ccc(O)c(OC)c2)ncc1C)c1cccnc1`, the inhibition at 20 µM (with DU145 (Prostate Cancer); in the experiment with PC3 (Prostate Cancer); in experiment [1]; in experiment [2]; in experiment [3]) was above 50% throughout. Moreover, the “Tubulin inhibition” value in experiment [4] is “+ (compounds which inhibited tubulin polymerisation by greater than 50% at 50 μM)”.
`CCNC(=O)Nc1ccc(-c2ncc(C)c(N[C@@H](CC)c3cccnc3)n2)cc1OC`: the inhibition at 20 µM (in the experiment on DU145 (Prostate Cancer); in the experiment on PC3 (Prostate Cancer); in experiment [1]; in experiment [2]; in experiment [3]) was above 50% in each case. Besides, the “Tubulin inhibition” value in experiment [4] is given as “+ (compounds which inhibited tubulin polymerisation by greater than 50% at 50 μM)”.
With `CC[C@H](Nc1nc(-c2ccc(O)c(OC)c2)ncc1C)c1cccnc1`, the inhibition at 20 µM (in the experiment on DU145 (Prostate Cancer); in the experiment with PC3 (Prostate Cancer); in experiment [1]; in experiment [2]; in experiment [3]) was above 50% each time. The “Tubulin inhibition” value in experiment [4] is given as “+ (compounds which inhibited tubulin polymerisation by greater than 50% at 50 μM)”.
On to `CCC[C@H](Nc1ccnc(-c2ccc(NC(=O)NCC)c(OC)c2)n1)c1cccnc1`, for which the inhibition at 20 µM (in the experiment with DU145 (Prostate Cancer); in the experiment on PC3 (Prostate Cancer); in experiment [1]; in experiment [2]; in experiment [3]) was above 50% throughout. Besides, the “Tubulin inhibition” value in experiment [4] was “+ (compounds which inhibited tubulin polymerisation by greater than 50% at 50 μM)”.
With `COc1cc(-c2cc(N[C@@H](C)c3ccccc3)ncn2)ccc1O`, the inhibition at 20 µM (with DU145 (Prostate Cancer); in the experiment on PC3 (Prostate Cancer); in experiment [1]; in experiment [2]; in experiment [3]) was above 50% throughout. Moreover, the “Tubulin inhibition” value in experiment [4] is “+ (compounds which inhibited tubulin polymerisation by greater than 50% at 50 μM)”.
